Results from publication PMC10178769, “A Facile Synthesis and Molecular Characterization of Certain New Anti-Proliferative Indole-Based Chemical Entities” (International Journal of Molecular Sciences, 2023).

What was measured:
[1] = MTT assay, toxicity on normal cells WI38; type: cell-based, human; settings: WI-38 lung fibroblast cells (non-tumorigenic); MTT, 48 h, non-tumorigenic human lung cell line; read-out: Cytotoxicity IC50 WI38
Procedure: (§1) The cancer cell growth inhibitory activity of the synthesized compound was tested against three human cancer cell lines, namely, breast cancer (MCF-7), colon cancer (HCT116) and lung cancer (A549), as well as non-tumorigenic human lung cell line (WI38) to estimate the selectivity for tumor cells.
(§2) Anti-proliferative activity in compounds 4a–q were tested in three cancerous cell lines (MCF-7 breast cancer cells, A549 lung carcinoma, HCT human colon cancer cells) and in WI-38 human lung fibroblast cells. Cells were plated at a density of 1.2–1.8 × 10,000 cells/well in a volume of 100 µL complete growth medium and were incubated at 37 °C for 24 h. Cells were then treated with serially diluted tested compound and incubated at 37 °C for 48 h. Twenty microliters of 3-(4,5-dimethylthiazol-2-yl)-2,5-diphenyltetrazolium bromide (MTT) (2.5 mg/mL) dissolved in PBS were added to the cells and cells were further incubated for 4 h at 37 °C. To dissolve formazan crystals, MTT solutions were completely removed and 100 μL DMSO was added. The absorbance was detected at 540 nm using a Spectramax 250 microplate reader (Molecular device, San Jose, CA, USA), and viability (%) was calculated as [optical density (OD) of treated group/OD of control group] × 100.

[2] = system: A549 lung carcinoma cells; experiment: MTT assay, antiproliferative activity, A549; type: cell-based; settings: Homo sapiens, 48 h, read-out: Cytotoxicity IC50 A549
Procedure: as §1, §2

[3] = system: MCF-7 breast cancer cells; experiment: MTT assay, antiproliferative activity, MCF-7; type: cell-based; settings: Homo sapiens, MCF7, 48 h, read-out: Cytotoxicity IC50 MCF7
Procedure: as §1, §2

[4] = system: HCT116 colon cancer cells; experiment: MTT assay, antiproliferative activity, HCT116; type: cell-based; settings: Homo sapiens, HCT-116, 48 h, read-out: Cytotoxicity IC50 HCT116
Procedure: as §1, §2

[5] = system: WI-38 human lung fibroblast cells; experiment: MTT assay, toxicity on normal cells WI38; type: cell-based; settings: WI38 versus cancer cells
Procedure: as §1, §2

MCF-7, A549, and HCT = experiment: MTT assay, cytotoxicity over the three cancer cell lines; type: cell-based; settings: Homo sapiens, average over MCF-7, HCT116, A549, 48 h
Procedure: as §1, with “The title compounds 4a–q were subjected to MTT assay to determine their cytotoxicity, and their in vitro antiproliferative activity was examined as well. The” for “The”, “cells. Staurosporine was used as a reference drug.” for “cells.”
as §2, with “To dissolve formazan crystals, MTT solutions were completely removed and 100 μL DMSO was added.” left out

MCF-7 cells [6] = experiment: Cell cycle analysis, propidium iodide flow cytometry; type: cell-based, human; settings: 10 µm, 48 h, control 34.72%
Procedure: To evaluate if the antiproliferative effect of 4e was due to the disturbance of the cell cycle, cells were treated with 10 µm for 48 h. […] Therefore, it is possible that the antiproliferative effect of 4e is due to S-phase cell cycle arrest.
To detect cell cycle status after treating cells with 4e, 1 × 10^6 cells were cultured in six-well plates for twenty-four hours per cell and were then treated with 10 μm of 4e for 48 h. Cells were then washed with phosphate-buffered saline. Cells were then fixed with 70% of cold ethanol and kept at 4 °C overnight. Cell analysis was then analyzed following the manifacorere protocol, using a Propidium Iodide Flow Cytometry Kit for Cell Cycle Analysis (Abcam, Waltham, MA, USA).

MCF-7 cells [7] = experiment: Annexin V-FITC apoptosis flow cytometry; type: cell-based, human; settings: 10 μm, 48 h
Procedure: To detect the apoptotic potential of our compound of choice, 4e, an Annexin V-FITC Apoptosis Detection Kit (BioVision, Mountain View, CA, USA) was used based on the manufacturer’s protocol using a dose of 10 μm for 48 h.

Row | melting point [°C] | Structure (SMILES) | IC50 at 48 h [1] [µM] | IC50 [2] [µM] | IC50 [3] [µM] | IC50 [4] [µM] | selectivity against non-tumorigenic cell line (WI38) (in words) [5] | IC50 (MCF-7, A549, and HCT) [µM] | cell population in the S phase (MCF-7 cells [6]) [%] | Annexin-V and 7-AAD positive cell populations (MCF-7 cells [7])
1 | 237 | NN(Cc1ccccc1)C(=O)c1cc2ccccc2[nH]1 [4c, N-Benzyl-1H-indole-2-carbohydrazide] | 50.4 ± 2.86 | 25.3 ± 1.38 | 62 ± 2.97 | 32.5 ± 1.56 | – | – | – | –
2 | 228 | COc1ccc2[nH]c(C(=O)N(N)Cc3ccc(Br)cc3)cc2c1 [4n, N-(4-Bromobenzyl)-5-methoxy-1H-indole-2-carbohydrazide] | 252 ± 14.3 | 16.7 ± 0.91 | 141 ± 6.74 | 61 ± 2.92 | – | – | – | –
3 | 225 | COc1ccc2[nH]c(C(=O)N(N)Cc3ccc(Cl)cc3)cc2c1 [4b, N-(4-Chlorobenzyl)-5-methoxy-1H-indole-2-carbohydrazide] | 163 ± 9.25 | 49.2 ± 2.68 | 11.5 ± 0.55 | 190 ± 9.12 | – | – | – | –
4 | 204 | NN(Cc1cc(C(F)(F)F)cc(C(F)(F)F)c1)C(=O)c1cc2ccccc2[nH]1 [4e, N-(3,5-Bis(trifluoromethyl)benzyl)-1H-indole-2-carbohydrazide] | 87.2 ± 4.94 | 3.49 ± 0.19 | 0.57 ± 0.03 | 1.95 ± 0.09 | exhibited selectivity toward cancer cells | 2 | 48.72 | significant increase
5 | 238 | NN(Cc1ccc(Br)cc1)C(=O)c1cc2ccccc2[nH]1 [4m, N-(4-Bromobenzyl)-1H-indole-2-carbohydrazide] | 46.1 ± 2.61 | 12.9 ± 0.7 | 62.9 ± 3.01 | 17.5 ± 0.84 | – | – | – | –
6 | 213 | COc1ccc2[nH]c(C(=O)N(N)Cc3ccc([N+](=O)[O-])cc3)cc2c1 [4p, N-(4-Nitrobenzyl)-5-methoxy-1H-indole-2-carbohydrazide] | 17.4 ± 0.99 | 3.02 ± 0.16 | 7.01 ± 0.34 | 19.4 ± 0.93 | – | – | – | –
7 | 209 | NN(Cc1ccc(F)cc1)C(=O)c1cc2ccccc2[nH]1 [4g, N-(4-Fluorobenzyl)-1H-indole-2-carbohydrazide] | 117 ± 6.65 | 17 ± 0.93 | 8.31 ± 0.4 | 12.3 ± 0.59 | – | – | – | –
8 | 190 | NN(Cc1ccc(C(F)(F)F)cc1)C(=O)c1cc2ccccc2[nH]1 [4i, N-(4-(Trifluoromethyl)benzyl)-1H-indole-2-carbohydrazide] | 25.3 ± 1.43 | 11.6 ± 0.63 | 23.9 ± 1.15 | 52.2 ± 2.5 | – | – | – | –
9 | 233 | NN(Cc1ccc(Cl)cc1)C(=O)c1cc2ccccc2[nH]1 [4a, N-(4-Chlorobenzyl)-1H-indole-2-carbohydrazide] | 66.2 ± 3.75 | 5.9 ± 0.32 | 21.7 ± 1.04 | 41.3 ± 1.98 | – | – | – | –
10 | 175 | COc1ccc2[nH]c(C(=O)N(N)Cc3ccc(F)cc3)cc2c1 [4h, N-(4-Fluorobenzyl)-5-methoxy-1H-indole-2-carbohydrazide] | 64.1 ± 3.63 | 23.9 ± 1.3 | 13.1 ± 0.63 | 207 ± 9.94 | – | – | – | –
11 | 210 | COc1ccc2[nH]c(C(=O)N(N)Cc3ccccc3)cc2c1 [4d, N-Benzyl-5-methoxy-1H-indole-2-carbohydrazide] | 95.2 ± 5.39 | 5.69 ± 0.31 | 3.23 ± 0.16 | 66.2 ± 3.17 | – | – | – | –
12 | 223 | NN(Cc1ccc([N+](=O)[O-])cc1)C(=O)c1cc2ccccc2[nH]1 [4o, N-(4-Nitrobenzyl)-1H-indole-2-carbohydrazide] | 86 ± 4.87 | 22.3 ± 1.21 | 3.66 ± 0.18 | 2.41 ± 0.12 | – | – | – | –
13 | 166 | COc1ccc2[nH]c(C(=O)N(N)Cc3ccc(C)cc3)cc2c1 [4q, N-(4-Methylbenzyl)-5-methoxy-1H-indole-2-carbohydrazide] | 56.2 ± 3.18 | 2.4 ± 0.13 | 1.01 ± 0.05 | 6.45 ± 0.31 | – | 3.28 ± 2.3 | – | –
14 | 248 | COc1ccc2[nH]c(C(=O)N(N)Cc3ccc(C#N)cc3)cc2c1 [4l, N-(4-Cyanobenzyl)-5-methoxy-1H-indole-2-carbohydrazide] | 18.5 ± 1.05 | 26.6 ± 1.45 | 81.4 ± 3.9 | 5.02 ± 0.24 | – | – | – | –
15 | 195 | COc1ccc2[nH]c(C(=O)N(N)Cc3cc(C(F)(F)F)cc(C(F)(F)F)c3)cc2c1 [4f, N-(3,5-Bis(trifluoromethyl)benzyl)-5-methoxy-1H-indole-2-carbohydrazide] | 24.4 ± 1.38 | 8.33 ± 0.45 | 58.1 ± 2.78 | 9.79 ± 0.47 | – | – | – | –
16 | 202 | N#Cc1ccc(CN(N)C(=O)c2cc3ccccc3[nH]2)cc1 [4k, N-(4-Cyanobenzyl)-1H-indole-2-carbohydrazide] | 30.8 ± 1.74 | 2.65 ± 0.14 | 9.21 ± 0.44 | 39.1 ± 1.88 | – | – | – | –
17 | 220 | COc1ccc2[nH]c(C(=O)N(N)Cc3ccc(C(F)(F)F)cc3)cc2c1 [4j, N-(4-(Trifluoromethyl)benzyl)-5-methoxy-1H-indole-2-carbohydrazide] | 97.9 ± 5.54 | 6.78 ± 0.37 | 3.27 ± 0.16 | 9.16 ± 0.44 | – | – | – | –
